# Key:
# eGFP− 4T1 cells = assay: In vitro PDT with rose bengal and blue laser light, MTT analysis; assay type: cell-based, Mus musculus; settings: 473 nm laser light after RB treatment, similar conditions, FIG. 2A
# Experimental: The photo inducing death of GFP− and GFP+ cells after blue light irradiation was measured by MTT analysis in the presence or absence of rose bengal (RB). The specific experimental procedure is as follows.
# RB was diluted with DMEM containing 10% FBS to produce RB at concentrations of 6.25, 12.5, 25, 50, and 100 μM. GFP− and GFP+ cells were pre-incubated in 96-well, black, and clear bottom plates at a density of 2×10^4 cells per well. Then cells were incubated with RB for 4 hours. The addition of a fresh culture medium without photosensitizer to the wells was performed. This was used as an untreated control. Cells were washed 3 times with PBS buffer.
# In the PDT-treated group, the cell was irradiated with blue laser light (473 nm, radiation dose rate=80 mW/cm^2) for 1 to 60 seconds. The toxicity of pure RB on GFP+ and GFP− cells was measured in the dark room. After the irradiation, the fresh culture medium was added to the wells, and cells were cultured again for 24 hours. The medium was then measured by MTT assay. […] The absorbance of the reaction solution was measured at 570 nm. Cell viability was calculated by the following equation: […]
# Each experiment was performed independently. Cell death was measured by LDH analysis.
# Th cells were seeded on a 24-well plate at a density of 5×10^4 per well. […] The absorbance was measured at 490 nm using a plate reader.
# [1] = test system: GFP cells and non-GFP cells; assay: Peristaltic pump experiment, Hoechst 33342 and PI double staining; assay type: cell-based; settings: 100 μM RB, 4 hours, flow 1 ml/min, 473 nm at 80 mW, repeated passes
# Experimental: (1) Non-GFP and GFP cells were seeded in a 100 mm dish at a density of 1×10^7 cells. The next day, 100 μM of rose bengal (RB, santacruz, sc-203757) was applied thereto (in the subsequent procedure, light exposure was avoided as much as possible). A 4 mm ID×6 mm OD×1 mm wall sized transparent tube (Tygon, E-3603) was connected to an EP-1 Econo Pump (Bio-rad, 731-9001) in the dark room. A laser device was prepared.
# In four hours after the RB treatment, cells were harvested using trypsin, suspended in 20 ml of the culture medium, and placed in a 50 ml tube. Using a pump, the cell solution passed through the tubing at a flow rate of 1 ml/min and was irradiated with light of 473 nm at an intensity of 80 mW. This process was repeated 2, 4, 8, and 10 times. The resulting cells were seeded in a 1-ml 12-well plate. The next day, double staining was performed to compare the death amounts of non-GFP and GFP cells with each other.
# 0.5×10^7 of non-GFP cells and 0.5×10^7 of GFP cells were mixed with each other (total 1×10^7). […]
# PDT-treated cells were seeded onto a 12-well plate (1 mL per well) while controlling the PDT-treated cells to have a confluence of 50% or larger. […] The number of dead cells (PI-stained cells)/total number of cells*100 per cell image was calculated. Then, the cell death percentage was measured by calculating the average value between the calculated values of three cell images.
smiles,measurement,setting,value
"O=C1OC2(c3cc(I)c(O)c(I)c3Oc3c2cc(I)c(O)c3I)c2c(Cl)c(Cl)c(Cl)c(Cl)c21 [RB, rose bengal]",eGFP− cells killed,eGFP− 4T1 cells,20%
same,death of GFP versus non-GFP cells in mixed culture,[1],only GFP cells were specifically killed
